According to patent publication US20050069887A1, “Dna synthesis promoters dna polymerase-associated factors and utilization thereof” (priority 2001, published 2005):
Where “and” joins values, the source holds several entries; their conditions need not be identical. Identical values can stand only once.

What was measured:
EX-Taq DNA polymerase = test: PCR using EX-Taq DNA polymerase with added salts (Examples 1-1 to 1-3); format: biochemical
Description: The effect produced by the addition of oxalate ions was investigated in the PCR using EX-Taq DNA polymerase. A PCR buffer supplied with EX-Taq (TAKARA) and 0.3 μM of a pair of primers of SEQ ID Nos:8 and 9 and 0.2 mM dNTPs were used. PCR was performed by using 1.0 U EX-Taq DNA polymerase and 20 ng of genomic DNA derived from human cell line K562 as a template, with the influence on the PCR result caused by varying the concentration of added oxalate ion being investigated. The PCR conditions were as follows: 1 preliminary reaction of 94° C. for 2 minutes, and then 35 cycles of 94° C. for 15 seconds, 60° C. for 30 seconds and 68° C. for 8.5 minutes. This PCR amplification was performed by using GeneAmp2400 (PE Applied Biosystems).
Salts (potassium chloride, potassium acetate, potassium oxalate, sodium oxalate, potassium sulfate) were investigated for their effectiveness in PCR using EX-Taq DNA polymerase under the same conditions as Example 1. Each salts was used in an amount of 4 to 6 mM of ion equivalent

KOD DNA polymerase = KOD DNA polymerase (Thermococcus kodakarensis, UniProt P77933, DEL407-766/DEL853-1389); test: Long PCR using KOD DNA polymerase (Examples 2-5 to 2-8); format: biochemical, Thermococcus kodakaraensis KOD1
Description: Oxalate ion and betaine were investigated for their synergistic effectiveness in long PCR amplification of a target DNA of more than 20 kb derived from the human genome using KOD DNA polymerase, successful amplification of which using α-type enzyme alone has not been reported. Potassium oxalate was added to the PCR buffer supplied with KOD-plus (TOYOBO CO.,LTD.) to attain a final concentration of 2 mM. Also used were 0.4 mM dNTPs, 0.3 μM of a pair of primers of SEQ ID Nos:20 and 21, and 2.0 U KOD DNA polymerase. 200 ng of genomic DNA derived from human cell line K562 was used as a template. This reaction mixture was subjected to PCR by using GeneAmp2400 (PE Applied Biosystems) to investigate the influence on the PCR results of varying the concentration of betaine. The PCR conditions were as follows: 1 preliminary reaction of 94° C. for 2 minutes; 5 cycles of 98° C. for 10 seconds and 74° C. for 18 minutes; 5 cycles of 98° C. for 10 seconds and 72° C. for 18 minutes; 5 cycles of 98° C. for 10 seconds and 70° C. for 18 minutes; 25 cycles of 98° C. for 10 second and 68° C. for 18 minutes; and 1 additional reaction of 68° C. for 7 minutes.
Oxalate ion and betaine were investigated for their synergistic effectiveness in long PCR amplification of a target DNA of more than 20 kb derived from the human genome using KOD DNA polymerase, successful amplification of which using α-type enzyme alone has not been reported. Betaine was added to the PCR buffer supplied with KOD-plus (TOYOBO CO., LTD.) to attain a final concentration of 1.5 M. Also used were 2.0 U KOD DNA polymerase, 0.4 mM dNTPs and 0.3 μM of a pair of primers of SEQ ID Nos:22 and 23 respectively for the PCR amplification of 22 kb DNA in tPA gene, and SEQ ID Nos:22 and 24 respectively for the PCR amplification of tPA 24 kb DNA. 200 ng of genomic DNA derived from human cell line K562 was used as a template. This reaction mixture was subjected to PCR by using GeneAmp2400 (PE Applied Biosystems) to investigate the influence on the PCR results of varying the concentration of potassium oxalate. The PCR conditions were as follows: 1 preliminary reaction of 94° C. for 2 minutes; 5 cycles of 98° C. for 10 seconds and 74° C. for 18 minutes; 5 cycles of 98° C. for 10 seconds and 72° C. for 18 minutes; 5 cycles of 98° C. for 10 seconds and 70° C. for 18 minutes; 25 cycles of 98° C. for 10 seconds and 68° C. of 18 minutes; and 1 additional reaction of 68° C. for 7 minutes.
Under the aforementioned conditions in which oxalate ions and betaine are present, the effect of hot start PCR using antibodies in long PCR using KOD DNA polymerase was investigated. Potassium oxalate and betaine were added to the PCR buffer supplied with KOD-plus (TOYOBO CO.LTD.) to attain a final oxalate concentration of 2 mM and a final betaine concentration of 1.5 M. Also used were 2.0 U KOD DNA polymerase, 0.4 mM dNTPs and 0.3 μM of a pair of primers of SEQ ID Nos:22 and 25 for PCR amplification of tPA 12 kb DNA; SEQ ID Nos:22 and 26 for PCR amplification of tPA 15 kb DNA; SEQ ID Nos:22 and 27 for PCR amplification of tPA 18 kb DNA; SEQ ID Nos:22 and 23 for PCR amplification of tPA 22 kb DNA; SEQ ID Nos:22 and 24 for PCR amplification of tPA 24 kb DNA; and SEQ ID Nos:28 and 29 for PCR amplification of β-globin 17.5 kb DNA. 200 ng of genomic DNA derived from human cell line K562 was used as a template. […]

[1] = 2 mM potassium oxalate, target of more than 20 kb, FIG. 15

Chain of KOD DNA polymerase (P77933 other isoform, or with tags, fused parts or gaps DEL407-766/DEL853-1389): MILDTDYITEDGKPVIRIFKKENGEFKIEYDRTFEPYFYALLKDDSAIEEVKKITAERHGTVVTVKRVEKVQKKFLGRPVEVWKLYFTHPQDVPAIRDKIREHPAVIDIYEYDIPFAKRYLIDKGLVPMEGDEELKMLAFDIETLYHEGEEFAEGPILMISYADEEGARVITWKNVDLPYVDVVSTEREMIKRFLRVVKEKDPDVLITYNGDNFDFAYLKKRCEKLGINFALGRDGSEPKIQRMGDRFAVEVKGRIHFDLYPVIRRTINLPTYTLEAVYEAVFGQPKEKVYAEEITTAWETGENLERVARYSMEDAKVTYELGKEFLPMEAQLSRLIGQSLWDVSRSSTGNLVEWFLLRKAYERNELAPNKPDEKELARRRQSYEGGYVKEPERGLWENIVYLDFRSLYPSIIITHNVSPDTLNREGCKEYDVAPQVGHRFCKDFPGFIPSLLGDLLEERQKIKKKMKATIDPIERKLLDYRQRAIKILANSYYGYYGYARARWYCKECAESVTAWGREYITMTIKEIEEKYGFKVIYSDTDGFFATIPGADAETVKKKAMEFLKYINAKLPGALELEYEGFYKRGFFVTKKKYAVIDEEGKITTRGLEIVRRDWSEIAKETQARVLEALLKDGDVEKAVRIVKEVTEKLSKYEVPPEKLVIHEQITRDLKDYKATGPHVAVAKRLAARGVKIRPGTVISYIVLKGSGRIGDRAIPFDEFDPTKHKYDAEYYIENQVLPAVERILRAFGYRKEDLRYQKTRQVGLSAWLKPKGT

| SMILES | amplification of target DNA (electrophoresis pattern) (EX-Taq DNA polymerase; carboxylate salts, FIG. 3) | amplification of target DNA (electrophoresis pattern) (EX-Taq DNA polymerase; salt at 4 to 6 mM of ion equivalent, FIG. 2) | potassium oxalate concentration at which amplification was confirmed (KOD DNA polymerase; 1.5 M betaine, tPA 22 kb DNA, FIG. 16) [mM] | potassium oxalate concentration at which slight amplification was observed (KOD DNA polymerase; 1.5 M betaine, tPA 24 kb DNA, FIG. 16) | betaine concentration at which sufficient amplification of both target DNAs was observed (KOD DNA polymerase; 2 mM potassium oxalate, tPA 9 kb and 12 kb, FIG. 18) | betaine concentration at which amplification of the target DNA was not observed (KOD DNA polymerase; [1]) [M] | betaine concentration at which sufficient amplification was found (KOD DNA polymerase; [1]) |
| --- | --- | --- | --- | --- | --- | --- | --- |
| O=C([O-])C(=O)[O-].[K+].[K+] [potassium oxalate] | amplification of the target DNA was observed | Amplification was observed | 2 | 1.5 mM and 2.0 mM | – | – | – |
| C[N+](C)(C)CC(=O)[O-] [betaine, trimethylglycine] | – | – | – | – | 1 M and 1.5 M | ≤ 1.2 | 1.4 M and 1.6 M |
